Measurements taken from PubChem BioAssay (NCI).
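A five-concentration, 48-hour dose response in 96-well plates underlies each endpoint, interpolated linearly between surrounding concentrations. Definition used: TGI = concentration required for complete inhibition of growth.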

Experiments:
Assay in all cases: DTP human tumour cell line panel, 48 h
MCF7 breast = system: MCF7 breast
LOX IMVI melanoma = system: LOX IMVI melanoma
PC-3 prostate = system: PC-3 prostate
NCI-H522 lung = system: NCI-H522 lung
HL-60(TB) leukemia = system: HL-60(TB) leukemia
MDA-MB-435 = system: MDA-MB-435
EKVX NSCLC = system: EKVX NSCLC
MOLT-4 leukemia = system: MOLT-4 leukemia
SW-620 colon = system: SW-620 colon
UACC-257 melanoma = system: UACC-257 melanoma
COLO 205 colon = system: COLO 205 colon
RXF 393 renal = system: RXF 393 renal
CAKI-1 renal = system: CAKI-1 renal
SK-MEL-28 melanoma = system: SK-MEL-28 melanoma
MDA-MB-231 breast = system: MDA-MB-231 breast
M14 melanoma = system: M14 melanoma
T-47D breast = system: T-47D breast
HCC-2998 colon = system: HCC-2998 colon
NCI-H460 lung = system: NCI-H460 lung
SF-295 CNS = system: SF-295 CNS
DU-145 prostate = system: DU-145 prostate
TK-10 renal = system: TK-10 renal
HCT-15 colon = system: HCT-15 colon
KM12 colon = system: KM12 colon
RPMI-8226 leukemia = system: RPMI-8226 leukemia
HT29 colon = system: HT29 colon
CCRF-CEM leukemia = system: CCRF-CEM leukemia
U251 CNS = system: U251 CNS
HCT-116 colon = system: HCT-116 colon
HOP-62 NSCLC = system: HOP-62 NSCLC
K-562 leukemia = system: K-562 leukemia
OVCAR-8 ovarian = system: OVCAR-8 ovarian
786-0 renal = system: 786-0 renal
SNB-19 CNS = system: SNB-19 CNS
A549 NSCLC = system: A549 NSCLC
MALME-3M melanoma = system: MALME-3M melanoma
UO-31 renal = system: UO-31 renal
NCI-H23 lung = system: NCI-H23 lung
SN12C renal = system: SN12C renal
SNB-75 CNS = system: SNB-75 CNS
SF-539 CNS = system: SF-539 CNS
SF-268 CNS = system: SF-268 CNS
OVCAR-5 ovarian = system: OVCAR-5 ovarian
HS 578T breast = system: HS 578T breast
BT-549 breast = system: BT-549 breast
OVCAR-4 ovarian = system: OVCAR-4 ovarian
HOP-92 NSCLC = system: HOP-92 NSCLC
OVCAR-3 ovarian = system: OVCAR-3 ovarian
NCI/ADR-RES ovarian = system: NCI/ADR-RES ovarian
IGROV1 ovarian = system: IGROV1 ovarian
SK-MEL-5 melanoma = system: SK-MEL-5 melanoma
SK-OV-3 ovarian = system: SK-OV-3 ovarian
A498 renal = system: A498 renal
SK-MEL-2 melanoma = system: SK-MEL-2 melanoma
ACHN renal = system: ACHN renal
MDA-N = system: MDA-N
NCI-H226 lung = system: NCI-H226 lung
UACC-62 melanoma = system: UACC-62 melanoma

## c1ccc2c(c1)Oc1cccc3cccc-2c13
MCF7 breast
  TGI: > 100 µM
LOX IMVI melanoma
  TGI: > 100 µM
PC-3 prostate
  TGI: > 100 µM
NCI-H522 lung
  TGI: > 100 µM
HL-60(TB) leukemia
  TGI: > 100 µM
MDA-MB-435
  TGI: > 100 µM
EKVX NSCLC
  TGI: > 100 µM
MOLT-4 leukemia
  TGI: > 100 µM
SW-620 colon
  TGI: > 100 µM
UACC-257 melanoma
  TGI: > 100 µM
COLO 205 colon
  TGI: > 100 µM
RXF 393 renal
  TGI: > 100 µM
CAKI-1 renal
  TGI: > 100 µM
SK-MEL-28 melanoma
  TGI: > 100 µM
MDA-MB-231 breast
  TGI: > 100 µM
M14 melanoma
  TGI: > 100 µM
T-47D breast
  TGI: > 100 µM
HCC-2998 colon
  TGI: > 100 µM
NCI-H460 lung
  TGI: > 100 µM
SF-295 CNS
  TGI: > 100 µM
DU-145 prostate
  TGI: > 100 µM
TK-10 renal
  TGI: > 100 µM
HCT-15 colon
  TGI: > 100 µM
KM12 colon
  TGI: > 100 µM
RPMI-8226 leukemia
  TGI: > 100 µM
HT29 colon
  TGI: > 100 µM
CCRF-CEM leukemia
  TGI: > 100 µM
U251 CNS
  TGI: > 100 µM
HCT-116 colon
  TGI: > 100 µM
HOP-62 NSCLC
  TGI: > 100 µM
K-562 leukemia
  TGI: > 100 µM
OVCAR-8 ovarian
  TGI: > 100 µM
786-0 renal
  TGI: > 100 µM
SNB-19 CNS
  TGI: > 100 µM
A549 NSCLC
  TGI: > 100 µM
MALME-3M melanoma
  TGI: > 100 µM
UO-31 renal
  TGI: > 100 µM
NCI-H23 lung
  TGI: > 100 µM
SN12C renal
  TGI: > 100 µM
SNB-75 CNS
  TGI: > 100 µM
SF-539 CNS
  TGI: > 100 µM
SF-268 CNS
  TGI: > 100 µM
OVCAR-5 ovarian
  TGI: > 100 µM
HS 578T breast
  TGI: > 100 µM
BT-549 breast
  TGI: > 100 µM
OVCAR-4 ovarian
  TGI: > 100 µM
HOP-92 NSCLC
  TGI: > 100 µM
OVCAR-3 ovarian
  TGI: > 100 µM
NCI/ADR-RES ovarian
  TGI: > 100 µM
IGROV1 ovarian
  TGI: > 100 µM
SK-MEL-5 melanoma
  TGI: > 100 µM
SK-OV-3 ovarian
  TGI: > 100 µM
A498 renal
  TGI: > 100 µM
SK-MEL-2 melanoma
  TGI: > 100 µM
ACHN renal
  TGI: > 100 µM
MDA-N
  TGI: > 100 µM
NCI-H226 lung
  TGI: > 100 µM
UACC-62 melanoma
  TGI: > 100 µM

## Cc1cccc2c(NCCCN(C)C)c3c([N+](=O)[O-])ccc(C)c3nc12
MCF7 breast
  TGI: 0.173 µM
LOX IMVI melanoma
  TGI: 0.607 µM
PC-3 prostate
  TGI: 0.259 µM
NCI-H522 lung
  TGI: 0.12 µM
HL-60(TB) leukemia
  TGI: 1.39 µM
MDA-MB-435
  TGI: 0.492 µM
EKVX NSCLC
  TGI: 0.36 µM
MOLT-4 leukemia
  TGI: 1.15 µM
SW-620 colon
  TGI: 6 µM
UACC-257 melanoma
  TGI: 0.4 µM
COLO 205 colon
  TGI: 0.218 µM
RXF 393 renal
  TGI: 0.19 µM
CAKI-1 renal
  TGI: 2.61 µM
SK-MEL-28 melanoma
  TGI: 5.87 µM
MDA-MB-231 breast
  TGI: 0.601 µM
M14 melanoma
  TGI: 0.297 µM
T-47D breast
  TGI: 0.758 µM
HCC-2998 colon
  TGI: < 0.0454 µM
NCI-H460 lung
  TGI: 0.141 µM
SF-295 CNS
  TGI: 0.451 µM
DU-145 prostate
  TGI: 0.651 µM
TK-10 renal
  TGI: 0.709 µM
HCT-15 colon
  TGI: 0.592 µM
KM12 colon
  TGI: 3.23 µM
RPMI-8226 leukemia
  TGI: 3.17 µM
HT29 colon
  TGI: 1.39 µM
CCRF-CEM leukemia
  TGI: > 100 µM
U251 CNS
  TGI: 0.741 µM
HCT-116 colon
  TGI: 0.821 µM
HOP-62 NSCLC
  TGI: 0.265 µM
K-562 leukemia
  TGI: 3.94 µM
OVCAR-8 ovarian
  TGI: 1.58 µM
786-0 renal
  TGI: 0.573 µM
SNB-19 CNS
  TGI: 2.02 µM
A549 NSCLC
  TGI: 0.778 µM
MALME-3M melanoma
  TGI: 0.375 µM
UO-31 renal
  TGI: 0.492 µM
NCI-H23 lung
  TGI: 0.16 µM
SN12C renal
  TGI: 0.948 µM
SNB-75 CNS
  TGI: 0.491 µM
SF-539 CNS
  TGI: 1.12 µM
SF-268 CNS
  TGI: 1.48 µM
OVCAR-5 ovarian
  TGI: 0.744 µM
HS 578T breast
  TGI: 2.96 µM
BT-549 breast
  TGI: 0.858 µM
OVCAR-4 ovarian
  TGI: 0.554 µM
HOP-92 NSCLC
  TGI: 0.416 µM
OVCAR-3 ovarian
  TGI: 0.357 µM
NCI/ADR-RES ovarian
  TGI: 3.37 µM
IGROV1 ovarian
  TGI: 0.666 µM
SK-MEL-5 melanoma
  TGI: 0.251 µM
SK-OV-3 ovarian
  TGI: 0.982 µM
A498 renal
  TGI: 0.0269 µM
SK-MEL-2 melanoma
  TGI: 0.285 µM
ACHN renal
  TGI: 0.332 µM
MDA-N
  TGI: 0.498 µM
NCI-H226 lung
  TGI: 0.458 µM
UACC-62 melanoma
  TGI: 0.284 µM

## Nc1nc(Cl)c(N=Nc2ccc(Cl)cc2)c(NCC2(CO)CCC(CCc3ccccc3)C2)n1 (centres undefined)
MCF7 breast
  TGI: 19.5 µM
LOX IMVI melanoma
  TGI: 4.59 µM
PC-3 prostate
  TGI: 25.8 µM
NCI-H522 lung
  TGI: 5.42 µM
HL-60(TB) leukemia
  TGI: 20.9 µM
MDA-MB-435
  TGI: 23.7 µM
EKVX NSCLC
  TGI: 28.3 µM
MOLT-4 leukemia
  TGI: 8.49 µM
SW-620 colon
  TGI: 17 µM
UACC-257 melanoma
  TGI: 25.1 µM
COLO 205 colon
  TGI: 19.4 µM
RXF 393 renal
  TGI: 22.2 µM
CAKI-1 renal
  TGI: 13.5 µM
SK-MEL-28 melanoma
  TGI: 35.3 µM
MDA-MB-231 breast
  TGI: 31.2 µM
M14 melanoma
  TGI: 31.5 µM
T-47D breast
  TGI: 32.2 µM
HCC-2998 colon
  TGI: 17.3 µM
NCI-H460 lung
  TGI: 30.6 µM
SF-295 CNS
  TGI: 25.7 µM
DU-145 prostate
  TGI: 25.9 µM
TK-10 renal
  TGI: 27.5 µM
HCT-15 colon
  TGI: 24.7 µM
KM12 colon
  TGI: 26.9 µM
RPMI-8226 leukemia
  TGI: 32.9 µM
HT29 colon
  TGI: 30.4 µM
CCRF-CEM leukemia
  TGI: 8.84 µM
U251 CNS
  TGI: 31.2 µM
HCT-116 colon
  TGI: 20.2 µM
HOP-62 NSCLC
  TGI: 28.1 µM
K-562 leukemia
  TGI: 9.78 µM
OVCAR-8 ovarian
  TGI: 19.3 µM
786-0 renal
  TGI: 21.6 µM
SNB-19 CNS
  TGI: 48.7 µM
A549 NSCLC
  TGI: 51.7 µM
MALME-3M melanoma
  TGI: 51 µM
UO-31 renal
  TGI: 4.31 µM
NCI-H23 lung
  TGI: 15.6 µM
SN12C renal
  TGI: 30.2 µM
SNB-75 CNS
  TGI: 28 µM
SF-539 CNS
  TGI: 34.5 µM
SF-268 CNS
  TGI: 33.4 µM
OVCAR-5 ovarian
  TGI: 31.3 µM
HS 578T breast
  TGI: > 55.3 µM
BT-549 breast
  TGI: 23.4 µM
OVCAR-4 ovarian
  TGI: 10.6 µM
HOP-92 NSCLC
  TGI: 29.3 µM
OVCAR-3 ovarian
  TGI: 23.6 µM
NCI/ADR-RES ovarian
  TGI: 34.4 µM
IGROV1 ovarian
  TGI: 23.4 µM
SK-MEL-5 melanoma
  TGI: 13.6 µM
SK-OV-3 ovarian
  TGI: 26.1 µM
A498 renal
  TGI: 27.3 µM
SK-MEL-2 melanoma
  TGI: 33.5 µM
ACHN renal
  TGI: 19.9 µM
MDA-N
  TGI: 30.2 µM
NCI-H226 lung
  TGI: 19.4 µM
UACC-62 melanoma
  TGI: 22.1 µM
